# Experimental data published in US20150368617A1, “METHOD FOR FORMING ENDOTHELIAL CELLS” (Korea Advanced Institute of Science and Technology (KAIST), priority 2012, published 2015).
# Tests used:
# [1] = test system: Flk1+ MPCs; assay: Differentiation and expansion of ECs from Flk1+ MPCs in feeder cell-free 2D Matrigel system, FACS of CD31+/CD144+ ECs; type: cell-based, mouse; settings: for EC population: other ROCK inhibitors
# Procedure: E14tg2a ESC cell line was a generous gift from Dr. Jun K. Yamashita (Kyoto University), and R1 ESC cell line was purchased from American Type Cell Culture. Mouse iPSC derived from FVB strain was a generous gift from Drs. Hyun-Jai Cho and Hyo-Soo Kim (Seoul National University Hospital). To obtain Flk1+ MPCs, ESCs and iPSCs were cultured on 0.1% gelatin-coated plates at a density of 1-2×10^3 cells/cm^2 in differentiation medium [┌−minimal essential medium (Invitrogen) supplemented with 10% fetal bovine serum (FBS)] without leukemia inhibitory factor (LIF). At day 4.5, the Flk1+ MPCs were purified by AutoMACS™Pro Separator (Miltenyi Biotec) with biotin-conjugated anti-mouse Flk1 antibody (clone AVAS12a1, eBioscience) and streptavidin MicroBeads (Miltenyi Biotec). The Flk1+MPCs were then subsequently plated onto Matrigel (BD Biosciences)-coated plates at a density of 1˜2×10^4 cells/cm^2, and were cultured in differentiation medium supplemented with VEGF-A165 (50 ng/ml, Peprotech). To purify the ECs from the differentiating Flk1+ cells, the cells were first dissociated and resuspended in HBSS/2% FBS, and were serially incubated with anti-mouse ICAM2 antibody (rat monoclonal, clone 3C4, Biolegend) for 10 min and with anti-rat IgG Microbead (Miltenyi Biotec) for 15 min. […] VEGF-Trap was prepared as previously described. Various signaling inhibitors and activators including SB203580, PD98059, KT5720, Go6976, KT5823, LY294002, rapamycin, Y27632, SB431542, Rho-kinase inhibitor (RKI; H-1152, isoquinolinesulfonamide), and Rho-kinase inhibitor II (RKI-II; pyridyl urea) were purchased from Calbiochem and Sigma-Aldrich.
# Cells were harvested with 0.25% trypsin-EDTA (Invitrogen) or dissociation buffer (Invitrogen) and resuspended in HBSS/2% FBS at 1×10^6 cells per 100┌ l. The cells were incubated for 20 min with the following antibodies: biotin-conjugated anti-mouse Flk1 (clone AVAS12a1, eBioscience), allophycocyanin (APC)-conjugated anti-mouse CD140a (clone APA5, eBioscience), phycoerythrin(PE)-conjugated anti-mouse CD31 (clone 390, eBioscience), Alexa Fluor® 647-conjugated anti-mouse CD144 (clone BV13, eBioscience), PE-conjugated anti-mouse D114 (clone HMD4-1, Biolegend), PE-conjugated anti-mouse Tie2 (clone TEK4, eBioscience), PE-conjugated anti-mouse Endoglin (clone MJ7/18, Biolegend), anti-mouse ICAM2 (clone 3C4, Biolegend), APC-conjugated anti-mouse CD140b (clone APBS, eBioscience), PE-conjugated anti-mouse LYVE1 (clone ALY7, eBioscience), anti-mouse VEGFR3 (goat polyclonal, R&D systems), anti-mouse EphB4 (clone VEB4-7E4, Hycult biotech), and PE-conjugated anti-mouse Notch1 (clone HMN1-12, Biolegend). After washing in HBSS/2% FBS twice, the cells were incubated with the following secondary antibodies: PE-conjugated streptavidin (eBioscience), PE-conjugated anti-rat IgG2a (eBioscience), and FITC-conjugated anti-goat IgG (Invitrogen). Dead cells were excluded by 7-aminoactinomycin D (7-AAD, Invitrogen).
# Flk1+ MPCs derived from mouse ESCs are capable of differentiating into ECs, hematopoietic cells, mural cells (MCs), and cardiomyocytes. To avoid cell contamination from using feeder cells for differentiation of Flk1+ MPCs, we have established a feeder cell-free 2D Matrigel system (FIG. 1A). Flk1+ MPCs were differentiated from E14tg2a ESC cell line, and when the Flk1+ MPCs were purified at day 4.5 and cultured on Matrigel-coated plates in the differentiation medium, colonies of CD144+ ECs surrounded by ┌ SMA+MCs were formed (FIG. 1B). At day 6.5, population of CD144+/CD31+ ECs grown in differentiation medium was ˜4%, whereas the same EC population was increased up to ˜20% when VEGF-A (50 ng/ml) was supplemented (FIG. 1C). For following experiments, we chose to use 50 ng/ml of VEGF-A (hereafter referred to as VEGF-A) based on its maximal effect on differentiation and expansion of ECs from Flk1+ MPCs.
# [2] = test system: Flk1+ MPCs; assay: Differentiation of MCs from Flk1+ MPCs, FACS of αSMA+ MCs; type: cell-based, mouse; settings: Y27632 10 μM; ML7 5 μM
# Procedure: FIGS. 11A-11D. ROCK suppression promotes the differentiation of ECs through PTEN-Akt signaling and inhibits the differentiation of MCs through MyPT-MLC signaling. (FIG. 11A) Representative FACS analysis of CD31+/CD144+ ECs incubated with 0.1% DMSO or LY294002 (20┌ M; LY) in the presence of PBS (Control) or Y27632 (10┌ M; Y). (FIG. 11B) % of CD31+/CD144+ EC population. Each group, n=3. *p<0.01 versus 0. Each group, n=3. *p<0.01 versus DMSO; ^#p<0.01 versus Y27632. (FIG. 11C) Representative FACS analysis of ┌ SMA+MCs or CD144+ ECs incubated with 0.1% DMSO or ML7 (5 ┌ M) in the presence of PBS (Control) or Y27632 (10┌ M). (FIG. 11D) % of ┌ SMA+MC population. Each group, n=3. *p<0.01 versus 0. Each group, n=3. *p<0.01 versus DMSO. n.s. represents statistically non-significant.
# Analysis and sorting for CMs were performed at day 10.5. We harvested differentiated Flk1+ MPCs on OP9 cells with 0.25% trypsin-EDTA or dissociation buffer (Invitrogen). Cardiac troponin-T (cTnT)+ and ┌ smooth muscle actin (SMA)+ cells were analyzed after permeabilization using Cytofix/Cytoperm solution (BD Biosciences) for 15 min. After permeabilization, the cells were incubated for 30 min with anti-mouse cTnT (NeoMarkers) monoclonal antibody. […] Data were analyzed using FlowJo Version 7.5.4 software (TreeStar).
compound,measurement,setting,value
VEGF-Trap: blocks the action of VEGF-A; prepared as previously described,ROCK suppression-induced expansion of ECs,[1]; pretreatment of VEGF-Trap (5 μg/ml) during differentiation,totally abolished
O=S(=O)(c1cccc2c(I)cccc12)N1CCCNCC1 [ML7],reduction of αSMA+MC population,[2],~31%
O=c1cc(N2CCOCC2)oc2c(-c3ccccc3)cccc12 [LY294002],ROCK suppression-induced differentiation and expansion of ECs,[1]; LY294002 20 μM with Y27632 under VEGF-A stimulus,almost completely suppressed
same,CD31+/CD144+ EC population,"[1]; inhibitor treated with VEGF-A, day 6.5",strongly reduced
O=C(Nc1ccncc1)Nc1c(Cl)cc(Cl)cc1Cl [RKI-II],EC population,[1],similarly increased
Cc1cncc2cccc(S(=O)(=O)N3CCCNC[C@@H]3C)c12 [RKI],EC population,[1],similarly increased
